Row | SMILES | melting point [°C]
1 | NC(=O)c1ccc(F)cc1Br | 163 to 165
2 | Cc1cc(C(=O)CCl)c(C)n1-c1ccccc1F | 86 to 90
3 | O=S(=O)(c1ccc(Br)s1)N1CCNCC1 | 195 to 205
4 | CCCCN(C)S(=O)(=O)c1ccc(N)cc1 | 76 to 80
5 | Nc1ccnc(C(=O)O)c1 | 198 to 200
6 | CC(O)Cc1cc(F)cc(Br)c1 (stereo not drawn) | 39 to 41
7 | O=C(O)Cc1ccc(OCc2ccccn2)cc1 | 153 to 155
8 | CCC(=O)c1cnn(C)c1 | 44 to 46
9 | O=C(O)c1occc1Br | 155 to 157
10 | CCc1c(O)nc(S)n(-c2ccccc2C)c1=O | 178 to 180
11 | CSc1ccc([N+](=O)[O-])c(C(=O)O)c1 | 176 to 178
12 | CC(C)(C)OC(=O)N1CCC2(CC1)CC2C(=O)O (stereo not drawn) | 123 to 125
13 | Fc1ccc(NCc2cccnc2)c(F)c1 | 87 to 89
14 | O=[N+]([O-])c1ccc2c(c1)S(=O)(=O)C=C2 | 179 to 181
15 | CN(CC(=O)O)C(N)=O | 141 to 143
16 | Cc1ccc(C(C)C)c(OCC(=O)O)c1 | 126 to 128
17 | COc1ccccc1-n1nnnc1S | 153 to 155
18 | Cc1ccc(O)c(C=O)n1 | 64 to 66
19 | O=C(O)CC(Br)C(=O)c1ccc(Br)cc1 (stereo not drawn) | 109 to 111
20 | Cc1cccc(-c2nnc(CCl)o2)c1 | 57 to 59
21 | CC(O)c1nc2cc(C(F)(F)F)ccc2n1C (stereo not drawn) | 99 to 101
22 | Cn1cc(C=O)c(-c2cc3ccccc3o2)n1 | 151 to 153
23 | CN(C)S(=O)(=O)c1ccc(/C=C/C(=O)O)cc1 | 268 to 270
24 | O=Cc1cc(-n2ccnc2)cs1 | 123 to 125

Row | SMILES | melting point [°C]
25 | Nc1ncc(C(=O)O)cc1Br | 299 to 301
26 | COc1cc(C=O)ccc1OCC(=O)O | 184 to 186
27 | N#Cc1cc(Cl)ccc1Oc1cccc(C(=O)O)c1 | 211 to 213
28 | Cc1nc(-c2cccc(N)c2)oc1C | 104 to 106
29 | NC1CCN(c2ccc(Cl)cc2)C1=O (stereo not drawn) | 80 to 82
30 | Cn1c(C(=O)O)cc2cc(C(F)(F)F)ccc21 | 199 to 201
31 | NCc1cccc(NC(=O)c2ccc(F)cc2)c1 | 132 to 134
32 | O=C(O)C(Cc1ccccc1)Cc1ccc(Cl)cc1 (stereo not drawn) | 79 to 81
33 | COc1cc(=O)[nH]c(NC(=O)CCl)n1 | 189 to 191
34 | Sc1nnc(COc2ccc(Cl)cc2)n1Cc1ccccc1 | 211 to 213
35 | CCn1nc(N)cc1C(F)(F)F | 54 to 56
36 | O=C(O)Cn1cc2ccccc2n1 | 248 to 250
37 | O=S(=O)(Cl)c1cnc(Cl)nc1Cl | 96 to 98
38 | O=C(O)CC1CCc2ccccc21 (stereo not drawn) | 58 to 60
39 | Cc1ccc(Cn2nc(C)c(CCC(=O)O)c2C)cc1 | 134 to 136
40 | O=Cc1csc(-c2ccccn2)n1 | 130 to 132
41 | C/C(=N\O)c1sc(C(C)(C)C)nc1C | 117 to 119
42 | O=C(O)c1ccc(Cl)c(S(=O)(=O)N2CCCCC2)c1 | 218 to 220
43 | O=c1[nH]c2c(c(=O)[nH]1)CCCC2 | 304 to 306
44 | CS(=O)(=O)Nc1ccc(N)cc1Cl | 181 to 183
45 | Cc1ccc2c(c1)nc(S)n2Cc1ccccc1Cl | 189 to 191
46 | CCc1ccc(C(=O)O)cc1S(C)(=O)=O | 174 to 176
47 | COc1cc(C=O)cc2c1OCCO2 | 81 to 83
48 | O=C(Cc1ccc2ccccc2c1)NO | 185 to 187

Row | SMILES | melting point [°C]
49 | COc1ccc(S(=O)(=O)NCCC(=O)O)cc1 | 125 to 127
50 | O=C(O)CCc1nc2sc3c(c2c(=O)[nH]1)CCC3 | 220 to 222
51 | Cc1nc(CC(C)C)sc1C(=O)O | 169 to 171
52 | O=C(O)c1ccc(C2CCCOC2)cc1 (stereo not drawn) | 166 to 168
53 | COC(=O)c1nc(Cl)ccc1Cl | 53 to 55
54 | Nc1ncc(-c2cccc(Cl)c2)s1 | 143 to 145
55 | Nc1ccc(NC(=O)c2ccc(F)cc2)cc1C(F)(F)F | 120 to 122
56 | CNc1cc(Cl)cc(CO)c1 | 49 to 51
57 | O=C1CCCC1c1ccc(Cl)c(Cl)c1 (stereo not drawn) | 63 to 65
58 | CCOC(=O)c1c(N)sc(C(=O)NC)c1C | 151 to 153
59 | Cc1cc(S(N)(=O)=O)c(C)o1 | 86 to 88
60 | Nc1ccc(-c2nc3ccccc3s2)cc1 | 149 to 151
61 | O=C(O)C1=NN(C2CCS(=O)(=O)C2)C(=O)CC1 (stereo not drawn) | 138 to 140
62 | CSc1nc(CCl)cc(=O)[nH]1 | 176 to 178
63 | CCC1(C)NC(=O)NC1=O (stereo not drawn) | 144 to 150
64 | CCC(=O)c1ccc(OC(F)F)cc1 | 39 to 43
65 | O=S(=O)(c1cccnc1)N1CCNCC1 | 88 to 90
66 | CC1(C(=O)O)COC(=O)OC1 | 159 to 161
67 | Sc1nnc(Nc2ccc(Oc3ccccc3)cc2)s1 | 183 to 185
68 | Sc1nnc(CCCc2ccccc2)o1 | 53 to 55
69 | O=C(CCl)NCCC(c1ccccc1)c1ccccc1 | 104 to 107
70 | CNC(c1ccc(Cl)cc1)c1ncccn1 (stereo not drawn) | 67 to 69
71 | CC1CCc2c(sc(N)c2C#N)C1 (stereo not drawn) | 145 to 147
72 | O=C(O)c1cc(S(=O)(=O)NCc2ccccn2)c(Cl)cc1Cl | 231 to 233

Row | SMILES | melting point [°C]
73 | CCn1nc(C)c(S(=O)(=O)Cl)c1C | 34 to 36
74 | Cc1ccc(NCCC(N)=S)cc1 | 94 to 96
75 | OCC1CN(Cc2ccccc2)CC1CO (stereo not drawn) | 94 to 96
76 | Nc1nc(C(F)(F)F)no1 | 97 to 99
77 | CC1CCc2c(sc3nc(CN4CCOCC4)nc(Cl)c23)C1 (stereo not drawn) | 55 to 57
78 | Cc1cc(C)n(Cc2cccc(C(N)=NO)c2)n1 | 137 to 139
79 | Cn1c(-c2ccccc2)c(Br)c2ccccc21 | 59 to 61
80 | O=c1oc2cc(O)ccc2c2c1CCC2 | 214 to 216
81 | O=C(O)C1CCN(C(=O)C2(c3ccccc3)CCC2)CC1 | 146 to 148
82 | Nc1cc(C(F)(F)F)cc2c1OCC(=O)N2 | 199 to 201
83 | CNC(=O)c1cc(Oc2cc(N)ccc2C)ccn1 | 141 to 143
84 | Cc1ccnc(Br)c1[N+](=O)[O-] | 54 to 56
85 | CCc1ccc(C(=O)O)o1 | 89 to 91
86 | NC(=S)NC1CC1 | 138 to 140
87 | CN(CC(=O)O)S(=O)(=O)C=Cc1ccccc1 | 150 to 152
88 | CS(=O)(=O)c1cc(C(=O)O)ccc1Cl | 216 to 218
89 | Clc1cnc2ccccc2n1 | 47 to 50
90 | COC(=O)c1cc(N2CCOCC2)ccc1N | 106 to 108
91 | CCc1nc2ccccc2n1CC(=O)O | 232 to 234
92 | N#Cc1cccc(COc2ccc(N)cc2F)c1 | 69 to 71
93 | Cc1nc(-c2cccc(Cl)c2)sc1C(=O)O | 191 to 193
94 | CC(Cl)C(=O)NC1(C#N)CCCCC1 (stereo not drawn) | 100 to 102
95 | Cc1ccccc1COc1cccc(CC(=O)O)c1 | 52 to 54
96 | Cc1ccccc1C(=O)NC(CC(C)C)C(=O)O (stereo not drawn) | 111 to 113

Row | SMILES | melting point [°C]
97 | NC(Cc1nc2ccccc2s1)=NO | 159 to 161
98 | COc1ccc(CCCCCC(=O)O)cc1 | 46 to 48
99 | O=C(O)c1ccc(NS(=O)(=O)c2ccc(F)cc2)cc1 | 240 to 242
100 | O=C(CCl)N1CCNC1=O | 195 to 197
101 | O=C(CCCl)Nc1ccccc1[N+](=O)[O-] | 86 to 88
102 | COCCNc1nnc(S)s1 | 120 to 122
103 | CC1CCCC(NC(=O)OC(C)(C)C)(C(=O)O)C1 (stereo not drawn) | 149 to 151
104 | CC(C)Oc1ccc(CCCO)cc1 | 31 to 33
105 | O=C(CCCl)Nc1ccc(Br)cc1 | 126 to 128
106 | Cn1cnc([N+](=O)[O-])c1S(=O)(=O)Cl | 100 to 102
107 | Nc1ccccc1NC(=O)Cc1cccs1 | 163 to 165
108 | Nc1ccc(N2CCCC2)nc1 | 83 to 85
109 | O=C1OCCc2cnc3ccnn3c21 | 213 to 215
110 | Cc1nn(-c2ccc(F)cc2)c(Cl)c1CO | 134 to 136
111 | O=S(=O)(Cl)CCc1ccccc1 | 30 to 32
112 | O=C(O)Cn1cc(Br)c(=O)[nH]c1=O | 266 to 268
113 | COC(=O)c1sc(S(=O)(=O)Cl)c(C(=O)OC)c1C | 88 to 92
114 | CN1CCc2ccc(S(=O)(=O)Cl)cc21 | 62 to 64
115 | Cc1nc(N)n(-c2ccc(C#N)cc2)n1 | 270 to 272
116 | CCOc1ncc(C(=O)O)cc1Cl | 214 to 216
117 | CCOC(=O)c1c(C)[nH]c(C(=O)O)c1C | 204 to 206
118 | NS(=O)(=O)c1cc([N+](=O)[O-])ccc1F | 139 to 141
119 | CCCC(C(=O)O)N1CCN(C(=O)OC(C)(C)C)CC1 (stereo not drawn) | 149 to 151
120 | NNC(=O)Cc1cc[nH]n1 | 180 to 182

Row | SMILES | melting point [°C]
121 | O=C(O)CCc1nc2ccccc2oc1=O | 167 to 169
122 | Nc1c(Oc2ccc(Cl)cc2)ccc2ncccc12 | 124 to 126
123 | NNc1ncccn1 | 90 to 92
124 | CS(=O)(=O)NCCc1ccc(C(=O)O)cc1 | 171 to 173
125 | O=C(O)Cn1c(=O)cnc2ccccc21 | 195 to 199
126 | O=S(=O)(Cl)c1ccc2c(c1)Cc1ccccc1-2 | 157 to 159
127 | Cc1nccc(C(=O)O)n1 | 206 to 208
128 | CC(C)Oc1ccc(-c2csc(N)n2)cc1 | 191 to 193
129 | COC(=O)C(=O)CC(=O)c1ccc(Cl)cc1Cl | 118 to 120
130 | O=C(c1cccnc1Cl)N1CCCCC1 | 67 to 69
131 | CC(C)NS(=O)(=O)Cc1ccc(C#N)cc1 | 158 to 160
132 | COc1ccccc1C(=O)c1ccccc1Cl | 59 to 61
133 | CN(C)C(=O)CN1C(=O)C(=O)c2cc(Br)ccc21 | 194 to 196
134 | CNC(C)c1sc(-c2ccc(C)cc2)nc1C (stereo not drawn) | 77 to 79
135 | CCOC(=O)C(C)NC(=O)c1ccc(N)cc1 (stereo not drawn) | 127 to 129
136 | O=C(O)c1cc(S(=O)(=O)N2CCCC2)c[nH]1 | 175 to 177
137 | Cn1cc(C(N)=O)c(C(F)F)n1 | 214 to 216
138 | O=c1c(Cl)c(Cl)cnn1-c1ccc(S(=O)(=O)Cl)cc1 | 144 to 146
139 | COc1ccc(/C=C/C(=O)O)c(OC)c1 | 192 to 194
140 | Cc1ccc(-n2nc(C(C)C)cc2N)cc1 | 47 to 49
141 | COc1cc(C=O)ccc1OCc1c(C)noc1C | 111 to 115
142 | NC(=O)c1cccnc1N1CCNCC1 | 145 to 147
143 | CN(C)S(=O)(=O)CC(=O)O | 130 to 132
